Assay results from patent US20040014701A1, “Inhibiting retrotransposon and retroviral integration by targeting the atm pathway” (priority 2003, published 2004).

Tested on: NIH3T3 cells
Assay: MTS formazan dye reduction cytotoxicity/cell viability assay
Method: Standard cytotoxicity/cell viability assays were performed using the CellTiter-96 Aqueous one solution MTS cell proliferation assay (Promega Inc) and using the standard conditions detailed in the manufacturer's instructions.
In addition, we also wanted to ensure that the observations made using the LUCIA were not due to any effects on luciferase expression or on the luciferase assay itself. For this reason, we looked at the effect of adding wortmannin and LY294002 to NIH3T3 cells containing the already integrated R229-Luc provirus.

## COC[C@H]1OC(=O)c2coc3c2[C@@]1(C)C1=C(C3=O)[C@@H]2CCC(=O)[C@@]2(C)C[C@H]1OC(C)=O [wortmannin]
MTS assay, concentrations used in LUCIA, FIG. 4C
  cellular cytotoxicity (percentage of viable cells remaining after drug treatment): slight cytotoxic effect at high concentrations

## O=c1cc(N2CCOCC2)oc2c(-c3ccccc3)cccc12 [LY294002]
mouse
  cellular cytotoxicity (percentage of viable cells remaining after drug treatment): slight cytotoxic effect at high concentrations
